Experimental data from ChEMBL document CHEMBL1201862, “PubChem BioAssay data set” (2004).
Active and inactive are the calls of the source.

Experiments:
[1] = system: HEK293; assay: inhibitors of LMP1-driven NF-kB reporter, dose response, cell-based, HEK293, luciferase, cherry-pick (AID 588343); assay type: functional; conditions: Homo sapiens
[2] = LGR2 antagonists, dose response, cell-based, HEK293, CRE-luciferase reporter, cherry pick, set 2 (AID 743343); assay type: functional;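 also: transfected cells were stimulated with diluted bursicon conditioned medium after compound addition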
[3] = MC4R antagonists, dose response, counter-screen for LGR2 antagonist project, cell-based, plate reader, cherry pick (AID 743444); assay type: functional;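 also: transfected HEK 293 cells stimulated with alpha-MSH peptide; potency of inhibitors of the alpha-MSH evoked signal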
[4] = target: T1, Carboxy-terminal domain RNA polymerase II polypeptide A small phosphatase 1 (Homo sapiens, UniProt Q9GZU7); assay: inhibitors of CTDSP1, concentration-response testing, biochemical assay, absorbance-based, actives from ultra-high-throughput screening (AID 540297); assay type: functional
T1 sequence (Q9GZU7 whole entry): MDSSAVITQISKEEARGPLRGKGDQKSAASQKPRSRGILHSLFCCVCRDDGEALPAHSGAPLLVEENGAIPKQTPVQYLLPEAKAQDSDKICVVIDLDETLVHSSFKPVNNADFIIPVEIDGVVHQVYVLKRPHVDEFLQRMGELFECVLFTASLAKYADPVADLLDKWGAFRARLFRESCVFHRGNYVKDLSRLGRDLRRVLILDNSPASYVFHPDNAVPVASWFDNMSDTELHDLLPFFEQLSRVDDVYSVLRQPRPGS

[5] = Luminescence Cell-Based Dose Retest to Confirm Inhibitors of Cancer Stem Cells. [Related pubchem assays (depositor defined):AID2717, AID2721]; assay type: functional; conditions: Homo sapiens
[6] = Shn3 3'UTR reporter inhibitors, dose response, cell-based, Clone20 osteoblasts, firefly luciferase, cherry-picked (AID 624132); assay type: functional;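 also: firefly luciferase luminescence from reporter carrying the Shn3 3'UTR in osteoblasts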
[7] = HepG2 cell cytotoxicity, dose response, cytotoxicity control for Shn3 inhibitor project, CellTiter-Glo, cherry-picked (AID 624134); assay type: functional, cell-based
[8] = target: Paired box protein Pax-8 (Homo sapiens, UniProt Q06710); assay: inhibitors of PAX8-driven TPO luciferase reporter, dose response, RMG-I cells, cherry-pick (AID 687027); assay type: functional, cell-based;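 also: luciferase reporter driven by Pax8 target thyroperoxidase promoter measured by SteadyGlo luminescence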
Sequence of Paired box protein Pax-8 (Q06710 whole entry): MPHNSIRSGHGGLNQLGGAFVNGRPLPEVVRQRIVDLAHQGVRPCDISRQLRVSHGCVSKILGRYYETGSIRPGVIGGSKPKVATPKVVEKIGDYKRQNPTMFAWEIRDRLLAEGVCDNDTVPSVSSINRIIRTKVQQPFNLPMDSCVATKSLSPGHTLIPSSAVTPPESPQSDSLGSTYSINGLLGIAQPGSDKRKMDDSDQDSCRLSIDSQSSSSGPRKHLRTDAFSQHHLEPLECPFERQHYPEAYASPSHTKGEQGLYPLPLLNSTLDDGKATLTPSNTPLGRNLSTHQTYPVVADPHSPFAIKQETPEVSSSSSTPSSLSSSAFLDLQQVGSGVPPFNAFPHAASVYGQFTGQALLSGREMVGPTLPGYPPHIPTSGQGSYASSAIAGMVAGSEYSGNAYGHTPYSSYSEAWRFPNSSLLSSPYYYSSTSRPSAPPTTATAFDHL

[9] = non-specific cell cytotoxicity, dose response, cytotoxicity control for PAX8 inhibitor project, plate reader, dry powder samples (AID 743021); assay type: functional, cell-based
[10] = system: Vero; assay: Vero cell cytotoxicity, cytotoxicity control for flavivirus capping enzyme inhibitors (AID 588742); assay type: functional; conditions: Chlorocebus sabaeus
[11] = target: Genome polyprotein (dengue virus type 2, UniProt P29990); assay: Dengue-2 NS5 methyltransferase inhibitors, primary screen, biochemical, confirmation dose response (AID 588689); assay type: functional
Sequence of Genome polyprotein (P29990 2492-3391 limits assumed): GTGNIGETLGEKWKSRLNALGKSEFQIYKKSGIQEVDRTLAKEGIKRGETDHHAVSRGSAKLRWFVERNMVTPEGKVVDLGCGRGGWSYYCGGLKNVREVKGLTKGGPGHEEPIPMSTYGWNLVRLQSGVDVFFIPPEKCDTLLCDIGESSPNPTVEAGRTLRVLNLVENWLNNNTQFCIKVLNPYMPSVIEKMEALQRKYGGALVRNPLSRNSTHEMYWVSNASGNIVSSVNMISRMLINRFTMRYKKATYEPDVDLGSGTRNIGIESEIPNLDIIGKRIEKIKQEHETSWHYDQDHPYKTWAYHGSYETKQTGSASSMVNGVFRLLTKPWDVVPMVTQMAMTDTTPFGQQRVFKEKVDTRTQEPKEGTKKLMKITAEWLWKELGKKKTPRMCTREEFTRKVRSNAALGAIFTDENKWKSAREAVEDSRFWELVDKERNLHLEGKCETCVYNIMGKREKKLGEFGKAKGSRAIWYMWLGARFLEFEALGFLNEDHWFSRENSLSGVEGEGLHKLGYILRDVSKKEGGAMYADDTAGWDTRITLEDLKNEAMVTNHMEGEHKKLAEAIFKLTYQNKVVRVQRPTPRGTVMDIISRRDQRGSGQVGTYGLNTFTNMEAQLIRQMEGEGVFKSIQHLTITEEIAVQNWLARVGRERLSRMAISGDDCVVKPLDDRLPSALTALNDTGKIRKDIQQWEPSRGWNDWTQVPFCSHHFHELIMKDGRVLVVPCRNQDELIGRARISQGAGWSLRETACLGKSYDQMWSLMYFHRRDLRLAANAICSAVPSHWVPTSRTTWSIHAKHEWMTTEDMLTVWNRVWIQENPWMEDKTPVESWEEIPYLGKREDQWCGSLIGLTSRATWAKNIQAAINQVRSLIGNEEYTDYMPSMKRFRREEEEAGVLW

[12] = system: INS1; assay: beta cell apoptosis inhibitors, cytokine rescue, dose response, luminescence, retest (AID 449756); assay type: functional, cell-based; conditions: Rattus norvegicus;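 also: cell death triggered by IL-1 beta plus TNF-alpha plus IFN-gamma mixture; protective hits raise ATP signal compared with cytokine alone wells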
[13] = ZM109 Env clade C HIV-1 fusion inhibitors, dose response, HeLa effector, CEM target cells, luciferase, cherry-pick (AID 652058); assay type: functional, cell-based
[14] = inhibitors of clade B AD8 Env fusion, dose response, cell-based, cherry-pick (AID 652062); assay type: functional;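 also: luciferase signal from cell-cell fusion driven by HIV-1 clade B AD8 Env; potency is for inhibitors of fusion seen as a drop in luminescence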
[15] = target: T2, Cytochrome P450 1A2 (Homo sapiens, UniProt P05177);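 also: PubChem cytochrome P450 panel assay, CYP1A2 panel member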
T2 sequence (P05177 whole entry): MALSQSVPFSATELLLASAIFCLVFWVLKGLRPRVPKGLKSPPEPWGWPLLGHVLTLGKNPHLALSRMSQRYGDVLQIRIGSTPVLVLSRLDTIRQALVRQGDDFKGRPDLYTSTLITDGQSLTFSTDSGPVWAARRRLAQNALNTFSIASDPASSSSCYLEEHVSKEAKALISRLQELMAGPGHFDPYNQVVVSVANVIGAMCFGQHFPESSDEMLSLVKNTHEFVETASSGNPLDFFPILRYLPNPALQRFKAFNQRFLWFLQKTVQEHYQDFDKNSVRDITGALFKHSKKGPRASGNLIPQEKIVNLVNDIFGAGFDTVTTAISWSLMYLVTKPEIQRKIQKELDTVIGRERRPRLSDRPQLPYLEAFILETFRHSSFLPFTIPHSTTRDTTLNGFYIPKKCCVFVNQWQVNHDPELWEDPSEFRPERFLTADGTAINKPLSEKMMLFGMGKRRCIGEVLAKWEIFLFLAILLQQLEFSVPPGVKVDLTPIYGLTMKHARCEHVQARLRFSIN

[16] = inhibitors of HIV Env-driven cell fusion, dose response, cherry-pick (AID 652057); assay type: functional, cell-based
[17] = target: Nonstructural protein 1 (Influenza A virus, UniProt Q194T2); assay type: functional, Influenza A virus (A/California/07/2009(H1N1))
Sequence of Nonstructural protein 1 (Q194T2 whole entry): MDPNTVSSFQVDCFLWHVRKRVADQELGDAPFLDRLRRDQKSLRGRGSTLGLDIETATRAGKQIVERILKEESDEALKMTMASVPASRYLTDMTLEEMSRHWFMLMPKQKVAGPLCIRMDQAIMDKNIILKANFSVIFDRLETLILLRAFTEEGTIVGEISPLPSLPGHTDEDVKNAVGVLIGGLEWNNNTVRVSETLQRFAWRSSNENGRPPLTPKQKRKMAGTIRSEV

[18] = target: T3, Replicative DNA helicase DnaB (Mycobacterium tuberculosis, UniProt P9WMR3); assay: DnaB intein splicing inhibitors, dose response, biochemical, cell-free fluorescence (AID 449749); assay type: functional
T3 sequence (P9WMR3 whole entry): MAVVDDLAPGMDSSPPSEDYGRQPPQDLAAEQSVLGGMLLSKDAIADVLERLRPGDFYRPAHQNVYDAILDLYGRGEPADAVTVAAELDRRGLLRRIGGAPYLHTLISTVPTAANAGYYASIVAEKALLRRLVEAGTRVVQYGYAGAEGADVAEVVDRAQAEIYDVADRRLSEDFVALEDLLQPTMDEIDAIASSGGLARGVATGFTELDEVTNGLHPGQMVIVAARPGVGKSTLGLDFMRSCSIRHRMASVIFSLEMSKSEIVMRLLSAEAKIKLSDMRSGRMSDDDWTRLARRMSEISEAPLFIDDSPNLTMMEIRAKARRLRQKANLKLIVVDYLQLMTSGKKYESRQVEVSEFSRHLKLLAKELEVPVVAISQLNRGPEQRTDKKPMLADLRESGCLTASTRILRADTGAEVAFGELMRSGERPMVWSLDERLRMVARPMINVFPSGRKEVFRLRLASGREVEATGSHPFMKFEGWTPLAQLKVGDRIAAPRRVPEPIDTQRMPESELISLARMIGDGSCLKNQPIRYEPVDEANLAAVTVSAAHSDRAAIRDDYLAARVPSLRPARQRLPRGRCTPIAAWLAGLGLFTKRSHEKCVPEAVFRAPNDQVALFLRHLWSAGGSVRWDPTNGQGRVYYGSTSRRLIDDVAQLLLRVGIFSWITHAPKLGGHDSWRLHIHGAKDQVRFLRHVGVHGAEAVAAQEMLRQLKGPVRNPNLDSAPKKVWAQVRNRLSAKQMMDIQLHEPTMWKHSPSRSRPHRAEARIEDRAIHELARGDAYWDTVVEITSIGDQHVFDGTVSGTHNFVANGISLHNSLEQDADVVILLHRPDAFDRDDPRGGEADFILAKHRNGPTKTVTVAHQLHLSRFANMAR

[19] = target: T4, Apoptotic protease-activating factor 1 (Homo sapiens, UniProt O14727); assay type: functional
T4 sequence (O14727 whole entry): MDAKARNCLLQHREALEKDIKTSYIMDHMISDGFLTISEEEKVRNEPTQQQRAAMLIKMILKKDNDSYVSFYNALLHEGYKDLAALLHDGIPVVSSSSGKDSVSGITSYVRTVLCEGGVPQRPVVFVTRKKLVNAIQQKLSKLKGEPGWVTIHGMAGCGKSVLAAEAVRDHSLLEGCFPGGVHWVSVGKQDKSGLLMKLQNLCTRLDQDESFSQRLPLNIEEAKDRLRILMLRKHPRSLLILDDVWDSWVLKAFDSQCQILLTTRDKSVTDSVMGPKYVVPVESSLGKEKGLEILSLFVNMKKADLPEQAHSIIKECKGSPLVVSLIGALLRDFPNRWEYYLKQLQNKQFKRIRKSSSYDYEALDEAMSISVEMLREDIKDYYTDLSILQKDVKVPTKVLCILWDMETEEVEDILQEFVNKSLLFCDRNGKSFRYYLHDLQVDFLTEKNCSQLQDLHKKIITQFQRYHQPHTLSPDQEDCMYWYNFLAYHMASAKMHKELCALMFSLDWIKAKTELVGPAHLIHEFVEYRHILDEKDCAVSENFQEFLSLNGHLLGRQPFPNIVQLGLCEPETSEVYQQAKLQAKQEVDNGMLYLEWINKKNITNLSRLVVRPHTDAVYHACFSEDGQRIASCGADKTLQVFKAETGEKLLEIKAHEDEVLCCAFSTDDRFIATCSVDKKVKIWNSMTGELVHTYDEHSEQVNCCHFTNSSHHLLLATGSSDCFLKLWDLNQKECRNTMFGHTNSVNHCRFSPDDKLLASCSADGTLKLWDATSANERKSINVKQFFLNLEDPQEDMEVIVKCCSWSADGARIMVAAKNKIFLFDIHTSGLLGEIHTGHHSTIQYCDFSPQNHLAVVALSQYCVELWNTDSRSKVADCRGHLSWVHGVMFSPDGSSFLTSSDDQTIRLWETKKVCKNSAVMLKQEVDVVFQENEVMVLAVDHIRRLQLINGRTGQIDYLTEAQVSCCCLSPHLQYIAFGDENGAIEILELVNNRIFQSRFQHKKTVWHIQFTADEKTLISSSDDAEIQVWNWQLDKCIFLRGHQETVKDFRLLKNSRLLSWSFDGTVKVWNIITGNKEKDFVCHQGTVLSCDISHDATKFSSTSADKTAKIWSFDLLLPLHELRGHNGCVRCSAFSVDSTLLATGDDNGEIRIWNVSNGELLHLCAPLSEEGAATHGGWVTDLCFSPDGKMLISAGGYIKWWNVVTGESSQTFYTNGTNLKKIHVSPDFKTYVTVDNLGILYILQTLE

[20] = target: T5, Protein RecA (Mycobacterium tuberculosis, UniProt P9WHJ3); assay: Fluorescence Cell-Free Homogeneous Dose Retest to Identify Inhibitors of RecA-Intein Splicing Activity. [Related pubchem assays (depositor defined):AID2097, AID2223, AID489010, AID492950]; assay type: functional
T5 sequence (P9WHJ3 whole entry): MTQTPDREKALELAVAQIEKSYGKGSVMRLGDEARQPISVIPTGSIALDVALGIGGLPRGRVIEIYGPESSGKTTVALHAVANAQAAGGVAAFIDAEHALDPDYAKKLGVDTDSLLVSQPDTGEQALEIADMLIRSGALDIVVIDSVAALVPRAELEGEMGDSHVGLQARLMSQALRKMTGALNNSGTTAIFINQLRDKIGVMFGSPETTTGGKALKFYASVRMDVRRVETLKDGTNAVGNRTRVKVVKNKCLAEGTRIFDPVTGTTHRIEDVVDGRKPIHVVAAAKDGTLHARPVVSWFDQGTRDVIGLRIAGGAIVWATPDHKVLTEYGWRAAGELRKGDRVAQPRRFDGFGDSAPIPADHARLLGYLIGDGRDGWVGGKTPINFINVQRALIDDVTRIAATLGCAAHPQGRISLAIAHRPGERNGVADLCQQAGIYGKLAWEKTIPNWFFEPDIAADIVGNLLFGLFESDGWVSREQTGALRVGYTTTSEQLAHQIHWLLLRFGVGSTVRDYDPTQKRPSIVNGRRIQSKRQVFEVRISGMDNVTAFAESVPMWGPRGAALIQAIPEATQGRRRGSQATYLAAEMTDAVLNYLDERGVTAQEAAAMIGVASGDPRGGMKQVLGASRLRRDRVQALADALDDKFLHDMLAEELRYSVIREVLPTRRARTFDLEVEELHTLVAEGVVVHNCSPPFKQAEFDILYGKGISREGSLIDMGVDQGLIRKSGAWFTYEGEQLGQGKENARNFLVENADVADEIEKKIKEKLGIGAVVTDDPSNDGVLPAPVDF

For `Cc1c(NC(=O)c2cccc(NC(=O)COc3ccccc3C#N)c2)c(=O)n(-c2ccccc2)n1C`, the AC50 [1] was 5.77 µM (active), the AC50 [2] was 2.66 µM (active) and the AC50 [3] was 4.53 µM (active).

For `c1ccc2c(c1)nc(N1CCCCCC1)c1ccccc12`, the IC50 [4] was 17.4 µM (active).

In the case of `O=c1cc(-c2ccc(O)cc2)oc2ccc3ccccc3c12`, the AC50 [5] is reported as 2.15 µM (active), the AC50 [6] is reported as 5.41 µM (active) and the AC50 [7] is reported as 41.6 µM (active). For the same compound, the AC50 [8] was 8.88 µM (active) and the AC50 [9] was 31.3 µM (active).

With `c1coc(-c2nc3nc4ccccc4n3nc2-c2ccco2)c1` the CC50 [10] was > 40 µM (active) and the IC50 [11] was 99.3 µM (active).

With `CCN(C1CCCCC1)S(=O)(=O)c1ccc(S(=O)(=O)NCc2ccncc2)cc1` the AC50 [12] was 5.12 µM (active), the AC50 [13] was 3.52 µM (active) and the AC50 [14] was 7.99 µM (active). For the same compound, the AC50 [15] was 15.8 µM (inconclusive).

In the case of `Cc1cccc(C(=O)Nc2ccc(C(=O)N/N=C/c3ccco3)cc2)c1`, the IC50 [4] is reported as 4.79 µM (active).

In the case of `COc1ccc(S(=O)(=O)N(C)C[C@@H]2Oc3ccc(NC(=O)C4CCCCC4)cc3CC(=O)N([C@H](C)CO)C[C@@H]2C)cc1`, the AC50 [16] is reported as 0.574 µM (active), the AC50 [13] is reported as 2.96 µM (active) and the AC50 [14] is reported as 4.51 µM (active).

In the case of `Cc1cc(C(=O)N/N=C/c2c(C)nn(-c3ccccc3)c2O)[nH]n1`, the IC50 [17] is reported as 11.8 µM (active), the AC50 [18] is reported as 226 µM (active) and the IC50 [19] is reported as 6.97 µM (active). For the same compound, the EC50 [20] was 27 µM (active).
